Test results from US10494363B2, “Non-steroidal glucocorticoid receptor modulators for local drug delivery” (LEO PHARMA A/S, priority 2015, dated 2019).

What was measured:
[1] = system: TNF alpha release from human PBMCs; assay: Inhibition of TNF alpha release from human PBMCs; format: cell-based; details: LPS 1 μg/ml, 18 hours, AlphaLISA
How it was run: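 Fresh or thawed PBMCs in serum-free medium with 0.5% HSA, stimulated with 1 μg/ml LPS plus titrated compound for 18 h at 37° C. TNF-a in supernatant by AlphaLISA; window set with a reference PDE4 inhibitor at 100×IC50. EC50 and Emax from sigmoidal fits.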

[2] = Human liver microsomes (HLM) assay; format: in vitro ADME; details: hepatic extraction ratio; 0.5 μM compound, 0.5 mg/mL microsomes, NADPH, 37° C.
How it was run: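 Compound at 0.5 μM incubated at 37° C. with human liver microsomes (0.5 mg/mL) and NADPH (1 mM) in phosphate buffer pH 7.4, 1% organic solvent; sampled 0-30 minutes. Clapp (mL/min/kg) and Eh (%) derived from depletion rate constant.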

[3] = target: T1, glucocorticoid receptor (GR), recombinant full-length receptor protein (Homo sapiens, UniProt P04150); assay: Glucocorticoid receptor binding assay (fluorescence polarization kit); details: 4 nM receptor, 2.5 nM Fluormone GS1 tracer, 2h room temperature, read-out: GR binding ABS IC50
T1 construct: 4 nM recombinant, full-length receptor protein was incubated with increasing concentrations of GR ligand; purchased Life Technologies A-15897
T1 sequence (P04150 1-777): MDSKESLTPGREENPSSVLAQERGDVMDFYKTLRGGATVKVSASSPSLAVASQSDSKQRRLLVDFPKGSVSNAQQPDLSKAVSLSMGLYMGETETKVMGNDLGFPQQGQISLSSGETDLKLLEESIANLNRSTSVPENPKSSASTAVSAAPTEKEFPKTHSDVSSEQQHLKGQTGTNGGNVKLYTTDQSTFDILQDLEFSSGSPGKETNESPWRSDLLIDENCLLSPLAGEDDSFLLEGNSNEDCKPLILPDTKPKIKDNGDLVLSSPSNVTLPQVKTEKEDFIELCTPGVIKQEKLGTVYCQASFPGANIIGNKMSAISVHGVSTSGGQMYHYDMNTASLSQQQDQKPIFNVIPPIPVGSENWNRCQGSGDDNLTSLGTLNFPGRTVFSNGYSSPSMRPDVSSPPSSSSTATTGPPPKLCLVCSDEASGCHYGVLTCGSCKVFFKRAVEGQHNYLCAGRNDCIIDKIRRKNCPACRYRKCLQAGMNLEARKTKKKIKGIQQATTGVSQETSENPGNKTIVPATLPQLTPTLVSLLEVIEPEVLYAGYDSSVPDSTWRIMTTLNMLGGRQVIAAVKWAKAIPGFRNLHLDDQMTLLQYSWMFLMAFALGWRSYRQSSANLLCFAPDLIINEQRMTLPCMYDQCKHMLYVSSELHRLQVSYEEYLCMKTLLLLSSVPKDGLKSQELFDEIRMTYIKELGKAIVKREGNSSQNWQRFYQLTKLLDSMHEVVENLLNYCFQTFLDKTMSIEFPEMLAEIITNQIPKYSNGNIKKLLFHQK
Procedure: Test compounds were diluted in DMSO over seven orders of magnitude, further diluted in assay buffer and distributed into 384-well plates. The sensitivity limit of this assay was 2-4 nM.
Data were processed by sigmoidal curve fitting.
Absolute (Abs) IC50 and Emax were determined from the curve fits.

Structure (SMILES) | EC50 ([1]; PBMC) | HLM assay Eh (%) [2] | IC50 [3] | EC50 [1]
C[C@H](NC(=O)c1ncco1)[C@H](Oc1ccc(C(=O)N[C@H]2CCCN(C(=O)[C@H]3COC(=O)C3)C2)nc1)c1ccc(C2CC2)cc1 [Compound 6, N-[(1S,2R)-2-(4-cyclopropylphenyl)-1-methyl-2-[[6-[[(3S)-1-[(3R)-5-oxotetrahydrofuran-3-carbonyl]-3-piperidyl]carbamoyl]-3-pyridyl]oxy]ethyl]oxazole-2-carboxamide] | < 100 nM | * (extraction ratio (Eh)>90%) | < 100 nM | –
C[C@H](NC(=O)C1(O)CCC1)[C@H](Oc1ccc(C(=O)N[C@H]2CCCN(C(=O)[C@H]3COC(=O)C3)C2)nc1)c1ccc(C2CC2)cc1 [Compound 17, 5-[(1R,2S)-1-(4-cyclopropylphenyl)-2-[(1-hydroxycyclobutanecarbonyl)amino]propoxy]-N-[(3S)-1-[(3R)-5-oxotetrahydrofuran-3-carbonyl]-3-piperidyl]pyridine-2-carboxamide] | < 100 nM | * (extraction ratio (Eh)>90%) | 100 to 300 nM | –
C[C@H](NC(=O)c1cnnn1C)[C@H](Oc1ccc(C(=O)O[C@H]2CCCN(C(=O)[C@H]3COC(=O)C3)C2)cc1)c1ccc(C2CC2)cc1 [Compound 38, [(3S)-1-[(3R)-5-oxotetrahydrofuran-3-carbonyl]-3-piperidyl] 4-[(1R,2S)-1-(4-cyclopropylphenyl)-2-[(3-methyltriazole-4-carbonyl)amino]propoxy]benzoate] | – | * (extraction ratio (Eh)>90%) | < 100 nM | 100 to 300 nM
C[C@H](NC(=O)c1ccon1)[C@H](Oc1ccc(C(=O)N[C@H]2CCCN(C(=O)[C@H]3COC(=O)C3)C2)nc1)c1ccc(C2CC2)cc1 [Compound 23, N-[(1S,2R)-2-(4-cyclopropylphenyl)-1-methyl-2-[[6-[[(3S)-1-[(3R)-5-oxotetrahydrofuran-3-carbonyl]-3-piperidyl]carbamoyl]-3-pyridyl]oxy]ethyl]isoxazole-3-carboxamide] | < 100 nM | * (extraction ratio (Eh)>90%) | < 100 nM | –
C[C@H](NC(=O)c1cnsn1)[C@H](Oc1ccc(C(=O)O[C@H]2CCCN(C(=O)[C@H]3COC(=O)C3)C2)cc1)c1ccc(C2CC2)cc1 [Compound 25, [(3S)-1-[(3R)-5-oxotetrahydrofuran-3-carbonyl]-3-piperidyl] 4-[(1R,2S)-1-(4-cyclopropylphenyl)-2-(1,2,5-thiadiazole-3-carbonylamino)propoxy]benzoate] | < 100 nM | * (extraction ratio (Eh)>90%) | < 100 nM | –
COCC(=O)N[C@@H](C)[C@H](Oc1ccc(C(=O)O[C@H]2CCCN(C(=O)[C@H]3COC(=O)C3)C2)cc1)c1ccc(C2CC2)cc1 [Compound 34, [(3S)-1-[(3R)-5-oxotetrahydrofuran-3-carbonyl]-3-piperidyl] 4-[(1R,2S)-1-(4-cyclopropylphenyl)-2-[(2-methoxyacetyl)amino]propoxy]benzoate] | < 100 nM | * (extraction ratio (Eh)>90%) | < 100 nM | –
CCc1ccc([C@@H](Oc2ccc(C(=O)N[C@H]3CCCN(C(=O)[C@H]4COC(=O)C4)C3)nc2)[C@H](C)NC(=O)C(F)(F)F)cc1 [Compound 66, 5-[(1R,2S)-1-(4-ethylphenyl)-2-[(2,2,2-trifluoroacetyl)amino]propoxy]-N-[(3S)-1-[(3R)-5-oxotetrahydrofuran-3-carbonyl]-3-piperidyl]pyridine-2-carboxamide] | < 100 nM | * (extraction ratio (Eh)>90%) | < 100 nM | –
C[C@H](NC(=O)C(C)(C)O)[C@H](Oc1ccc(C(=O)N[C@H]2CCCN(C(=O)[C@H]3COC(=O)C3)C2)nc1)c1ccc(C2CC2)cc1 [Compound 15, 5-[(1R,2S)-1-(4-cyclopropylphenyl)-2-[(2-hydroxy-2-methyl-propanoyl)amino]propoxy]-N-[(3S)-1-[(3R)-5-oxotetrahydrofuran-3-carbonyl]-3-piperidyl]pyridine-2-carboxamide] | < 100 nM | ** (50%<extraction ratio (Eh)<90%) | > 300 nM | –
C[C@H](NC(=O)[C@H]1CCCO1)[C@H](Oc1ccc(C(=O)O[C@H]2CCCN(C(=O)[C@H]3COC(=O)C3)C2)cc1)c1ccc(C2CC2)cc1 [Compound 37, [(3S)-1-[(3R)-5-oxotetrahydrofuran-3-carbonyl]-3-piperidyl] 4-[(1R,2S)-1-(4-cyclopropylphenyl)-2-[[(2R)-tetrahydrofuran-2-carbonyl]amino]propoxy]benzoate] | < 100 nM | * (extraction ratio (Eh)>90%) | < 100 nM | –
CC[C@H](O)C(=O)N[C@@H](C)[C@H](Oc1ccc(C(=O)N[C@H]2CCCN(C(=O)[C@H]3COC(=O)C3)C2)nc1)c1ccc(C2CC2)cc1 [Compound 10, 5-[(1R,2S)-1-(4-cyclopropylphenyl)-2-[[(2S)-2-hydroxybutanoyl]amino]propoxy]-N-[(3S)-1-[(3R)-5-oxotetrahydrofuran-3-carbonyl]-3-piperidyl]pyridine-2-carboxamide] | < 100 nM | * (extraction ratio (Eh)>90%) | 100 to 300 nM | –
C[C@H](NC(=O)c1ccns1)[C@H](Oc1ccc(C(=O)O[C@H]2CCCN(C(=O)[C@H]3COC(=O)C3)C2)cc1)c1ccc(C2CC2)cc1 [Compound 47, [(3S)-1-[(3R)-5-oxotetrahydrofuran-3-carbonyl]-3-piperidyl] 4-[(1R,2S)-1-(4-cyclopropylphenyl)-2-(isothiazole-5-carbonylamino)propoxy]benzoate] | < 100 nM | * (extraction ratio (Eh)>90%) | < 100 nM | –
